Measurements: patent publication US20160303231A1, “TREATING CANCER WITH A COMBINATION OF A PD-1 ANTAGONIST AND A VEGFR INHIBITOR” (GLAXOSMITHKLINE LLC, priority 2013, published 2016)
Where a name gives a salt, the structure may show the parent alone.

Test system: RENCA cells
Experiment: Anti-tumor response of tumor-bearing mice (RENCA tumor model)
Type: in vivo, BALB/c mice
Settings: for Tumor Size (D17): Mean ± SEM, day 17
Protocol: A cohort of 8 weeks old female BALB/c mice were implanted with 1×10^6 RENCA cells. […] The Vehicle control was 0.5% hydroxypropylemethylcellulose, 0.1% Tween-80 in distilled water, pH adjusted to 1.3-1.5 with 0.1N hydrochloric acid. The Isotype control was mouse IgG1 specific for an adenoviral hexon protein (clone TC31.27F11).
A one-way ANOVA test was performed to compare tumor volume at the end of study among groups.

[1] = G4: Isotype 5 mpk + Pazopanib 100 mpk qd
[2] = G6: Isotype 1 mpk + Pazopanib 100 mpk qd
[3] = G8: Isotype 5 mpk + Pazopanib 100 mpk bid

## Cc1ccc(Nc2nccc(N(C)c3ccc4c(C)n(C)nc4c3)n2)cc1S(N)(=O)=O [Pazopanib, 5-[[4-[(2,3-dimethyl-2H-indazol-6-yl)methylamino]-2-pyrimidinyl]amino]-2-methylbenzenesulfonamide monohydrochloride]
[1]
  T/C: 61%
  TGI (tumor growth inhibition): 39%
[2]
  T/C: 70%
  TGI (tumor growth inhibition): 30%
  Tumor Size (D17): 1,751 ± 214 mm^3
[3]
  T/C: 48%
  TGI (tumor growth inhibition): 52%
  Tumor Size (D17): 1,240 ± 97 mm^3
